Values quoted from earlier work, collected in patent US6803060B2, “Composition to boost libido” (priority 2000, dated 2004).

Assays:
impotent men = conditions: ingestion
[1] = test system: male erectile dysfunction; conditions: alone or in combination with papaverine
corpus cavernosum = conditions: for erection after injection into the corpus cavernosum: injected directly into the corpus cavernosum with a hypodermic needle; for duration of erection after injection: intracavernosal injection, appropriate dose
impotentia erectionis = conditions: buccal, 100 I.U. three times a day for 14 days

Row | SMILES | erection after injection into the corpus cavernosum (corpus cavernosum) | also measured
1 | COC(=O)[C@@H]1[C@H]2C[C@H]3c4[nH]c5ccccc5c4CCN3C[C@@H]2CC[C@@H]1O [yohimbine] |  | treated patients reporting complete satisfaction (impotent men): 5%; subjective improvement in erectile ability (impotent men; impotent men treated): 38%
2 | CCCCC[C@H](O)/C=C/[C@H]1[C@H](O)CC(=O)[C@@H]1CCCCCCC(=O)O [prostaglandin E1] |  | erectile response [1]: improved erectile response
3 | CN(C)CCCN1c2ccccc2CCc2ccccc21 [imipramine] | caused erection | 
4 | CC(COc1ccccc1)N(CCCl)Cc1ccccc1 (stereo not shown) [phenoxybenzamine] | caused erection | duration of erection after injection (corpus cavernosum): unrelenting erection lasting for hours
5 | CCN(CC)CCOC(=O)C(Cc1cccc2ccccc12)CC1CCCO1 (mixture of isomers) [naftidrofuryl] | caused erection | 
6 | COc1ccc(Cc2nccc3cc(OC)c(OC)cc23)cc1OC [papaverine] | caused erection | duration of erection after injection (corpus cavernosum): unrelenting erection lasting for hours
7 | CC(=O)Oc1cc(C(C)C)c(OCCN(C)C)cc1C [thymoxamine] | caused erection | 
8 | COc1ccc(CCN(C)CCCC(C#N)(c2ccc(OC)c(OC)c2)C(C)C)cc1OC (stereo not shown) [verapamil] | caused erection | 
9 | Cc1ccc(N(CC2=NCCN2)c2cccc(O)c2)cc1 [phentolamine] | caused erection | 
10 | CC[C@H](C)[C@@H]1NC(=O)[C@H](Cc2ccc(O)cc2)NC(=O)[C@@H](N)CSSC[C@@H](C(=O)N2CCC[C@H]2C(=O)N[C@@H](CC(C)C)C(=O)NCC(N)=O)NC(=O)[C@H](CC(N)=O)NC(=O)[C@H](CCC(N)=O)NC1=O [oxytocin] |  | patients with improvement of impotentia erectionis (impotentia erectionis): 12 of the 16
